Experiment: Inhibition of PHA-stimulated IL2 secretion in human Jurkat T cells preincubated for 10 mins followed by PHA addition and measured after 20 to 24 hrs by ELISA

| Structure (SMILES) | IC50 |
| --- | --- |
| Cc1ccc(C2=NOC(C)(C)C2=O)cc1-c1cnc(C(=O)Nc2c(F)cccc2F)cn1 [US10292981, Example 121] | 150 nM |
| CCn1nc(-c2ccc(C)c(-c3ccc(NC(=O)c4c(F)cccc4F)cc3)c2)oc1=O [US10292981, Example 34] | 78 nM |
| Cc1ccc(C2=NOC(C)(C)C2=O)cc1-c1ccc(NC(=O)c2c(F)cccc2F)nc1 [US10292981, Example 4] | 178 nM |
| Cc1ccc(C2=NOC(C)(C)C2=O)cc1-c1cnc(NC(=O)c2c(F)cncc2F)cn1 [US10292981, Example 114] | 94 nM |
| Cc1ccc(-c2nn(C)c(=O)o2)cc1-c1cnc(NC(=O)c2c(F)cccc2F)cn1 [US10292981, Example 87] | 64 nM |
| Cc1ccc(C2=NOC(C)(C)C2=O)cc1-c1cnc(NC(=O)c2c(F)cccc2Cl)cn1 [US10292981, Example 80] | 65 nM |
| Cc1ccc(C2=NOC(C)(C)C2)cc1-c1cnc(NC(=O)c2c(F)cccc2F)cn1 [US10292981, Example 53] | 328 nM |

Now from value to molecule:

| IC50 | Structure (SMILES) |
| --- | --- |
| 171 nM | Cc1ccc(C2=NOC(C)(C)C2=O)cc1-c1cnc(NC(=O)c2ccccc2Cl)cn1 [US10292981, Example 78] |
| 34 nM | Cc1ccc(-c2nn(C)c(=O)o2)cc1-c1ccc(NC(=O)c2c(F)cccc2F)cc1 [US10292981, Example 33] |
| 69 nM | Cc1ccc(C2=NOC(C)(C)C2=O)cc1-c1ccc(NC(=O)c2c(F)cccc2F)cc1 [US10292981, Example 3] |
